# Laboratory results taken from US9533946B1, “N-carbamoylputrescine to enhance muscle protein synthesis” (CITRAGE, priority 2016, dated 2017).
# Marks after values point to notes of the source that are not given here.
# Legend:
# [1] = General effects of NCP-supplemented diet in rats (weight, behaviour, mortality, body composition); type: in vivo; details: for Initial weight: n = 7, before feeding period, mean ± SD; for Daily weight gain / Final weight / Weight gain: n = 7, mean ± SD
# Experimental: (§1) Eight-week old Sprague-Dawley rats (Charles Rivers, Lyon, France) were used. They were placed in individual cages and acclimatized for two weeks to our animal facility. During this period they received standard rodent chow (A04, UAR, Villemoisson-sur-Orge, France) and water ad libitum.
# (§2) After acclimatization twenty eight-month old rats were randomized into three groups in order to receive for two weeks a standard diet either alone (n=6; control group) or supplemented with NCP either 5 mg/kg/d (n=7, NCP5 group) or 50 mg/kg/d (n=7; NCP50 group). Their weight, behaviour and mortality were monitored throughout the feeding period.
# (§3) At the end of the feeding period, the rats, in the fasted state, were anesthetized by isoflurane inhalation and euthanized by decapitation.
# (§4) Mixed blood was collected onto heparinized tubes and rapidly centrifuged. The liver was immediately removed and weighed, and a sample was cut off, frozen in liquid nitrogen, and stored at −80° C. until analysis. For the jejunum and ileum, the intestine was washed with cold NaCl (0.9%) and reverted. Thereafter the intestinal mucosa was scraped, rapidly frozen in liquid nitrogen, and stored at −80° C. until analysis. Two muscles of the hindlimb, tibialis (rich in type II fibres) and soleus (rich in type I fibres), and the right kidney were rapidly removed, weighed, frozen in liquid nitrogen, and stored at −80° C. until analysis. Body composition was assessed by dissection and lean mass (carcass), visceral fat mass, sub-cutaneous fat mass (subcutaneous fat and skin) and mass of the viscera were determined.
# [2] = Plasma biological parameters after NCP-supplemented diet in rats; type: in vivo
# Experimental: as §1, §2, §3, §4
# (§5) Biological parameters studied were: • in tissues: NCP, protein and amino acid contents • in plasma: amino acids, liver function tests (plasma aspartate aminotransferase, alanine aminotransferase, alkaline phosphatase, and bilirubin), muscle enzymes (plasma creatine kinase, and lactate dehydrogenase), plasma electrolytes (sodium, potassium, chloride, bicarbonates), total protein, urea, creatinine, calcium, phosphate, magnesium, uric acid, glucose, cholesterol and triglycerides. […]
# [3] = system: soleus (rich in type I fibres); assay: Soleus protein content after NCP-supplemented diet in rats; type: in vivo, Sprague-Dawley rats
# Experimental: as §1, §2, §3, §4, §5
# [4] = system: soleus (rich in type I fibres); assay: Soleus amino acid content after NCP-supplemented diet in rats; type: in vivo, Sprague-Dawley rats; parameters: Soleus Serine content / Soleus Asparagine content / Soleus Glutamate content / Soleus Glycine content / Soleus Citrulline content / Soleus Valine content / Soleus Isoleucine content / Soleus Leucine content / Soleus Tyrosine content / Soleus Phenylalanine content / Soleus Ornithine content / Soleus Histidine content / Soleus Lysine content / Soleus Arginine content / Soleus Proline content / Soleus Taurine content / Soleus Aspartate content / Soleus Threonine content: unit not given here
# Experimental: as §1
# as §2, with “[…]; […]).” for “NCP5 group) or 50 mg/kg/d (n=7; NCP50 group).”
# as §3, §4
# Biological parameters studied were: • in tissues: NCP, protein and amino acid contents • in plasma: amino acids, liver function tests (plasma aspartate aminotransferase, alanine aminotransferase, alkaline phosphatase, and bilirubin), muscle enzymes (plasma creatine kinase, and lactate dehydrogenase), plasma electrolytes (sodium, potassium, chloride, bicarbonates), total protein, urea, creatinine, calcium, phosphate, magnesium, uric acid, glucose, cholesterol and triglycerides. Results General Effects of N-carbamoyl Putrescine
# [5] = system: liver, kidney, tibialis, and jejunal and ileal mucosa; assay: Protein contents of other tissues after NCP-supplemented diet in rats; type: in vivo, Sprague-Dawley rats; details: between the three groups
# Experimental: as §1, §2, §3
# as §4, with “Two muscles of the hindlimb, tibialis (rich in type II fibres) and soleus (rich in type I fibres), and the right kidney were rapidly removed, weighed, frozen in liquid nitrogen, and stored at −80° C. until analysis.” left out, “determined. […]” for “determined.”
# [6] = rats, NCP 5 mg/kg/d in diet, two weeks
# [7] = rats, NCP 50 mg/kg/d in diet, two weeks
# [8] = rats, NCP 5 or 50 mg/kg/d in diet, two weeks
smiles,measurement,setting,value
"NCCCCNC(N)=O [NCP, 1-(4-aminobutyl) urea]",side effects,"[1]; mammals, after administration",no side effects were noticed
same,Initial weight,"[1]; rats, NCP 5 mg/kg group",264.9 ± 16 g
same,Daily weight gain,[1]; [6],3.44 ± 0.58 g/day
same,Final weight,[1]; [6],313.1 ± 18.1 g
same,Weight gain,[1]; [6],48.1 ± 8.1 g
same,Initial weight,"[1]; rats, NCP 50 mg/kg group",264.9 ± 8.2 g
same,Daily weight gain,[1]; [7],3.65 ± 0.62 g/day
same,Final weight,[1]; [7],316.1 ± 13.9 g
same,Weight gain,[1]; [7],51.2 ± 8.7 g
same,general behavior,[1]; [8],No rats showed abnormal general behavior
same,weight gain compared to controls,[1]; [8],no difference
same,"body composition (lean mass, fat mass, mass of the viscera, liver mass)","[1]; rats, NCP 5 or 50 mg/kg/d vs control, data not shown",no difference between the groups
same,Plasma urea,"[2]; NCP50 group vs NCP5, FIG. 1",higher
same,Plasma urea,[2]; the two NCP-supplemented groups compared to control rats,no difference
same,"plasma electrolytes, hepatic and muscular enzymes, creatinine, glucose, cholesterol, triglycerides and uric acid levels","[2]; three groups (control, NCP5, NCP50), data not shown",No difference
same,protein level in soleus,"[3]; NCP5 group (5 mg/kg/d, two weeks), control 12.7±1.8, p=0.018 vs control",14.5±0.7 g/100 g
same,protein level in soleus vs control group,"[3]; NCP5 vs control, p=0.018",higher
same,protein level in soleus,"[3]; NCP50 group (50 mg/kg/d, two weeks), control 12.7±1.8",14.0±0.8 g/100 g
same,Soleus Alanine content,"[4]; NCP 5 mg/kg, n = 7, mean ± SD",1735 ± 385^ab μmol/g
same,Soleus Arginine content,"[4]; NCP 5 mg/kg, n = 7, mean ± SD",381 ± 115
same,Soleus Asparagine content,"[4]; NCP 5 mg/kg, n = 7, mean ± SD",519 ± 106
same,Soleus Aspartate content,"[4]; NCP 5 mg/kg, n = 7, mean ± SD",4195 ± 703
same,Soleus Citrulline content,"[4]; NCP 5 mg/kg, n = 7, mean ± SD",351 ± 53
same,Soleus Glutamate content,"[4]; NCP 5 mg/kg, n = 7, mean ± SD",3753 ± 684
same,Soleus Glutamine content,"[4]; NCP 5 mg/kg, n = 7, mean ± SD",7605 ± 1016^ab μmol/g
same,Soleus Glycine content,"[4]; NCP 5 mg/kg, n = 7, mean ± SD",1932 ± 516
same,Soleus Histidine content,"[4]; NCP 5 mg/kg, n = 7, mean ± SD",415 ± 50^a μmol/g
same,Soleus Isoleucine content,"[4]; NCP 5 mg/kg, n = 7, mean ± SD",83 ± 17
same,Soleus Leucine content,"[4]; NCP 5 mg/kg, n = 7, mean ± SD",103 ± 23
same,Soleus Lysine content,"[4]; NCP 5 mg/kg, n = 7, mean ± SD",933 ± 222
same,Soleus Ornithine content,"[4]; NCP 5 mg/kg, n = 7, mean ± SD",75 ± 12
same,Soleus Phenylalanine content,"[4]; NCP 5 mg/kg, n = 7, mean ± SD",75 ± 19
same,Soleus Proline content,"[4]; NCP 5 mg/kg, n = 7, mean ± SD",196 ± 42
same,Soleus Serine content,"[4]; NCP 5 mg/kg, n = 7, mean ± SD",1933 ± 384
same,Soleus Taurine content,"[4]; NCP 5 mg/kg, n = 7, mean ± SD",23882 ± 2585
same,Soleus Threonine content,"[4]; NCP 5 mg/kg, n = 7, mean ± SD",512 ± 109
same,Soleus Tyrosine content,"[4]; NCP 5 mg/kg, n = 7, mean ± SD",106 ± 15
same,Soleus Valine content,"[4]; NCP 5 mg/kg, n = 7, mean ± SD",182 ± 22
same,Soleus Alanine content,"[4]; NCP 50 mg/kg, n = 6, mean ± SD",2025 ± 182^b μmol/g
same,Soleus Arginine content,"[4]; NCP 50 mg/kg, n = 6, mean ± SD",395 ± 62
same,Soleus Asparagine content,"[4]; NCP 50 mg/kg, n = 6, mean ± SD",538 ± 124
same,Soleus Aspartate content,"[4]; NCP 50 mg/kg, n = 6, mean ± SD",4742 ± 1443
same,Soleus Citrulline content,"[4]; NCP 50 mg/kg, n = 6, mean ± SD",379 ± 65
same,Soleus Glutamate content,"[4]; NCP 50 mg/kg, n = 6, mean ± SD",4074 ± 390
same,Soleus Glutamine content,"[4]; NCP 50 mg/kg, n = 6, mean ± SD",8547 ± 988^b μmol/g
same,Soleus Glycine content,"[4]; NCP 50 mg/kg, n = 6, mean ± SD",2145 ± 153
same,Soleus Histidine content,"[4]; NCP 50 mg/kg, n = 6, mean ± SD",494 ± 6
same,Soleus Isoleucine content,"[4]; NCP 50 mg/kg, n = 6, mean ± SD",91 ± 22
same,Soleus Leucine content,"[4]; NCP 50 mg/kg, n = 6, mean ± SD",113 ± 32
same,Soleus Lysine content,"[4]; NCP 50 mg/kg, n = 6, mean ± SD",1009 ± 168
same,Soleus Ornithine content,"[4]; NCP 50 mg/kg, n = 6, mean ± SD",74 ± 15
same,Soleus Phenylalanine content,"[4]; NCP 50 mg/kg, n = 6, mean ± SD",77 ± 11
same,Soleus Proline content,"[4]; NCP 50 mg/kg, n = 6, mean ± SD",199 ± 26
same,Soleus Serine content,"[4]; NCP 50 mg/kg, n = 6, mean ± SD",1964 ± 248
same,Soleus Taurine content,"[4]; NCP 50 mg/kg, n = 6, mean ± SD",25223 ± 1987
same,Soleus Threonine content,"[4]; NCP 50 mg/kg, n = 6, mean ± SD",571 ± 67
same,Soleus Tyrosine content,"[4]; NCP 50 mg/kg, n = 6, mean ± SD",126 ± 21
same,Soleus Valine content,"[4]; NCP 50 mg/kg, n = 6, mean ± SD",194 ± 24
same,"concentration of Glutamine, alanine and histidine in soleus muscle","[4]; with NCP administration, positive correlation of glutamine and alanine with dose (p=0.015, p=0.013)",significantly increased
same,"liver, kidney, tibialis, and jejunal and ileal mucosa protein contents",[5],similar
